Laboratory results published in patent US8680113B2, “BMI-1 protein expression modulators” (PTC Therapeutics, Inc., priority 2008, dated 2014).

These compounds were tested on Bmi-1 (assay: Sandwich ELISA Assay (Bmi-1 ELISA in HT-1080 cells)).
Format: cell-based, human
Method in brief: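 Lysate Bmi-1 was quantified against a recombinant GST-Bmi-1 standard (0-8000 pg/mL) by sandwich ELISA read at OD450 with OD570 reference. The ELISA used mouse monoclonal capture, rabbit anti-Bmi-1, HRP anti-rabbit IgG and TMB. Before lysis, HT-1080 cells seeded at 8000/well were exposed to compounds for 40-48 h at 37°C with 0.5% final DMSO.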

| IC50 | SMILES |
| --- | --- |
| < 0.5 µM | Cc1nc2ncccn2c1-c1ccnc(Nc2ccc3c(c2)OCO3)n1 [Cpd 124, N-(1,3-benzodioxol-5-yl)-4-(2-methylimidazo[1,2-a]pyrimidin-3-yl)pyrimidin-2-amine] |
| < 0.5 µM | Cc1nc2ncccn2c1-c1ccnc(N(C)c2ccc(I)cc2)n1 [Cpd 125, N-(4-iodophenyl)-N-methyl-4-(2-methylimidazo[1,2-a]pyrimidin-3-yl)pyrimidin-2-amine] |
| < 0.5 µM | Cc1nc2ncccn2c1-c1ccnc(Nc2ccc(Br)cc2)n1 [Cpd 126, N-(4-bromophenyl)-4-(2-methylimidazo[1,2-a]pyrimidin-3-yl)pyrimidin-2-amine] |
| < 0.5 µM | Cc1nc2ccccn2c1-c1ccnc(Nc2cccc(Br)c2)n1 [Cpd 127, N-(3-bromophenyl)-4-(2-methylimidazo[1,2-a]pyridin-3-yl)pyrimidin-2-amine] |
| < 0.5 µM | Cc1nc2ccccn2c1-c1ccnc(Nc2ccc(N(C)C)cc2)n1 [Cpd 129, N,N-dimethyl-N′-[4-(2-methylimidazo[1,2-a]pyridin-3-yl)pyrimidin-2-yl]benzene-1,4-diamine] |
| < 0.5 µM | CCN(CC)c1ccc(Nc2nccc(-c3c(C)nc4ccccn34)n2)cc1 [Cpd 130, N,N-diethyl-N′-[4-(2-methylimidazo[1,2-a]pyridin-3-yl)pyrimidin-2-yl]benzene-1,4-diamine] |
| < 0.5 µM | CC(=O)c1ccc(Nc2nccc(-c3c(C)nc4ncccn34)n2)cc1 [Cpd 131, 1-(4-{[4-(2-methylimidazo[1,2-a]pyrimidin-3-yl)pyrimidin-2-yl]amino}phenyl)ethanone] |
| < 0.5 µM | Cc1nc2ccc(Cl)cn2c1-c1csc(Nc2ccc(Br)cc2Cl)n1 [Cpd 132, N-(4-bromo-2-chlorophenyl)-4-(6-chloro-2-methylimidazo[1,2-a]pyridin-3-yl)-1,3-thiazol-2-amine] |
| < 0.5 µM | Cc1nc2ccc(Cl)cn2c1-c1csc(Nc2ccccc2)n1 [Cpd 133, 4-(6-chloro-2-methylimidazo[1,2-a]pyridin-3-yl)-N-phenyl-1,3-thiazol-2-amine] |
| < 0.5 µM | Clc1ccc2ncc(-c3csc(Nc4c(Br)cc(Br)cc4Br)n3)n2c1 [Cpd 135, 4-(6-chloroimidazo[1,2-a]pyridin-3-yl)-N-(2,4,6-tribromophenyl)-1,3-thiazol-2-amine] |
| 0.5 to 1 µM | Clc1cc(Cl)c(Nc2nc(-c3cnc4ccc(Cl)cn34)cs2)c(Cl)c1 [Cpd 136, 4-(6-chloroimidazo[1,2-a]pyridin-3-yl)-N-(2,4,6-trichlorophenyl)-1,3-thiazol-2-amine] |
| < 0.5 µM | Cc1nc2ccccn2c1-c1ccnc(N(C)c2ccc(N(C)C)cc2)n1 [Cpd 137, N,N,N′-trimethyl-N′-[4-(2-methylimidazo[1,2-a]pyridin-3-yl)pyrimidin-2-yl]benzene-1,4-diamine] |
| < 0.5 µM | CCN(CC)c1ccc(N(C)c2nccc(-c3c(C)nc4ccccn34)n2)cc1 [Cpd 138, N,N-diethyl-N′-methyl-N′-[4-(2-methylimidazo[1,2-a]pyridin-3-yl)pyrimidin-2-yl]benzene-1,4-diamine] |
| < 0.5 µM | Cc1nc2ccccn2c1-c1ccnc(N(C)c2ccc3c(c2)OCO3)n1 [Cpd 139, N-(1,3-benzodioxol-5-yl)-N-methyl-4-(2-methylimidazo[1,2-a]pyridin-3-yl)pyrimidin-2-amine] |
| < 0.5 µM | Cc1nc2ncccn2c1-c1ccnc(N(C)c2ccccc2Cl)n1 [Cpd 140, N-(2-chlorophenyl)-N-methyl-4-(2-methylimidazo[1,2-a]pyrimidin-3-yl)pyrimidin-2-amine] |
| < 0.5 µM | COc1cc(C)c(Nc2nccc(-c3c(C)nc4ccccn34)n2)c(C)c1 [Cpd 141, N-(4-methoxy-2,6-dimethylphenyl)-4-(2-methylimidazo[1,2-a]pyridin-3-yl)pyrimidin-2-amine] |

| IC50 | SMILES |
| --- | --- |
| < 0.5 µM | CCOc1ccc(N(C)c2nccc(-c3c(C)nc4ccccn34)n2)cc1 [Cpd 142, N-(4-ethoxyphenyl)-N-methyl-4-(2-methylimidazo[1,2-a]pyridin-3-yl)pyrimidin-2-amine] |
| 0.5 to 1 µM | Cc1nc2ccccn2c1-c1ccnc(N(C)c2ccc(I)cc2)n1 [Cpd 143, N-(4-iodophenyl)-N-methyl-4-(2-methylimidazo[1,2-a]pyridin-3-yl)pyrimidin-2-amine] |
| < 0.5 µM | CCc1nc2ncccn2c1-c1csc(Nc2ccc(OC)cc2)n1 [Cpd 144, 4-(2-ethylimidazo[1,2-a]pyrimidin-3-yl)-N-(4-methoxyphenyl)-1,3-thiazol-2-amine] |
| < 0.5 µM | CCc1nc2ncccn2c1-c1csc(Nc2ccc(N(C)C)cc2)n1 [Cpd 145, N′-[4-(2-ethylimidazo[1,2-a]pyrimidin-3-yl)-1,3-thiazol-2-yl]-N,N-dimethylbenzene-1,4-diamine] |
| < 0.5 µM | CCc1nc2ncccn2c1-c1csc(Nc2c(Br)cc(OC)cc2Br)n1 [Cpd 146, N-(2,6-dibromo-4-methoxyphenyl)-4-(2-ethylimidazo[1,2-a]pyrimidin-3-yl)-1,3-thiazol-2-amine] |
| < 0.5 µM | CCc1nc2ncccn2c1-c1csc(Nc2ccc(Cl)cc2)n1 [Cpd 147, N-(4-chlorophenyl)-4-(2-ethylimidazo[1,2-a]pyrimidin-3-yl)-1,3-thiazol-2-amine] |
| < 0.5 µM | CCc1nc2ncccn2c1-c1csc(Nc2ccc(Br)cc2)n1 [Cpd 148, N-(4-bromophenyl)-4-(2-ethylimidazo[1,2-a]pyrimidin-3-yl)-1,3-thiazol-2-amine] |
| < 0.5 µM | CCc1nc2ncccn2c1-c1csc(Nc2ccc(I)cc2)n1 [Cpd 149, 4-(2-ethylimidazo[1,2-a]pyrimidin-3-yl)-N-(4-iodophenyl)-1,3-thiazol-2-amine] |
| < 0.5 µM | CCc1nc2ncccn2c1-c1csc(Nc2ccc(C(C)=O)cc2)n1 [Cpd 150, 1-(4-{[4-(2-ethylimidazo[1,2-a]pyrimidin-3-yl)-1,3-thiazol-2-yl]amino}phenyl)ethanone] |
| < 0.5 µM | CCc1nc2ncccn2c1-c1csc(Nc2ccc3c(c2)OCO3)n1 [Cpd 151, N-(1,3-benzodioxol-5-yl)-4-(2-ethylimidazo[1,2-a]pyrimidin-3-yl)-1,3-thiazol-2-amine] |
| < 0.5 µM | CCc1nc2ncccn2c1-c1csc(Nc2ccc(OC)c(F)c2)n1 [Cpd 152, 4-(2-ethylimidazo[1,2-a]pyrimidin-3-yl)-N-(3-fluoro-4-methoxyphenyl)-1,3-thiazol-2-amine] |
| < 0.5 µM | CCc1nc2ncccn2c1-c1csc(Nc2ccc(OC)c(Cl)c2)n1 [Cpd 153, N-(3-chloro-4-methoxyphenyl)-4-(2-ethylimidazo[1,2-a]pyrimidin-3-yl)-1,3-thiazol-2-amine] |
| < 0.5 µM | FC(F)(F)c1nc2ncccn2c1-c1csc(Nc2ccc3c(c2)OCO3)n1 [Cpd 154, N-(1,3-benzodioxol-5-yl)-4-[2-(trifluoromethyl)imidazo[1,2-a]pyrimidin-3-yl]-1,3-thiazol-2-amine] |
| < 0.5 µM | COc1ccc(Nc2nc(-c3c(C)nc4ccc(F)cn34)cs2)cc1F [Cpd 155, N-(3-fluoro-4-methoxyphenyl)-4-(6-fluoro-2-methylimidazo[1,2-a]pyridin-3-yl)-1,3-thiazol-2-amine] |
| < 0.5 µM | Cc1nc2ccc(F)cn2c1-c1csc(Nc2ccc(I)cc2)n1 [Cpd 156, 4-(6-fluoro-2-methylimidazo[1,2-a]pyridine-3-yl)-N-(4-iodophenyl)-1,3-thiazol-2-amine] |
